pIC50, pKi: −log10 of the molar value. The source made the active and inactive calls. The rule behind the calls is not given here.
Tests used:
[1] = biological target: Delta-type opioid receptor (Cricetulus griseus) (UniProt G3H1Y1); test: Displacement of [3H]DADLE from delta opioid receptor in CHO cells at 1 uM after 120 mins relative to control; format: cell-based
Rattus norvegicus [2] = species: Rattus norvegicus; test: Activity at UDP-glucuronosyltransferase in Sprague-Dawley rat liver microsomes assessed as morphine conversion to M3G at 50 uM by Michaelis-Menten plot analysis
[3] = Clearance in Sprague-Dawley rat liver microsomes at 10 uM; format: ADME; conditions: read-out: CLH
Hepatocyte [4] = test: Inhibition of UDP-glucuronosyltransferase in Sprague-Dawley rat hepatocytes assessed as morphine conversion to M3G at 5 to 40 uM incubated for 72 hrs prior to substrate addition measured after 2 hrs by HPLC analysis; format: cell-based
[5] = biological target: Kappa-type opioid receptor (Cricetulus griseus) (UniProt G3HZR5); test: Displacement of [3H]U-69593 from kappa opioid receptor in CHO cells at 10 uM after 120 mins relative to control; format: cell-based
[6] = Clearance in Sprague-Dawley rat liver microsomes at 50 uM; format: ADME; conditions: read-out: CLH
[7] = biological target: Mu-type opioid receptor (Homo sapiens) (UniProt P35372); conditions: HEK293, at 1 µM
Description: Displacement of [3H]diprenorphine from mu opioid receptor in HEK293 cells at 1 uM after 120 mins relative to control

[8] = Clearance in Sprague-Dawley rat liver microsomes at 5 uM; format: ADME; conditions: read-out: CLH
[9] = biological target: Delta-type opioid receptor (Cricetulus griseus) (UniProt G3H1Y1); test: Displacement of [3H]DADLE from delta opioid receptor in CHO cells at 10 uM after 120 mins relative to control; format: cell-based
[10] = Clearance in Sprague-Dawley rat liver microsomes at 2.5 uM; format: ADME; conditions: read-out: CLH
[11] = Clearance in Sprague-Dawley rat liver microsomes at 1 uM; format: ADME; conditions: read-out: CLH
Rattus norvegicus [12] = species: Rattus norvegicus; test: Activity at UDP-glucuronosyltransferase in Sprague-Dawley rat liver microsomes assessed as morphine conversion to M3G at 2.5 uM by Michaelis-Menten plot analysis
[13] = (§1) Inhibition of UDP-glucuronosyltransferase in Sprague-Dawley rat liver microsomes assessed as morphine conversion to M3G after 30 mins by HPLC analysis
Rattus norvegicus [14] = species: Rattus norvegicus; test: as §1
Rattus norvegicus [15] = species: Rattus norvegicus; test: Activity at UDP-glucuronosyltransferase in Sprague-Dawley rat liver microsomes assessed as morphine conversion to M3G at 5 uM by Michaelis-Menten plot analysis
Rattus norvegicus [16] = species: Rattus norvegicus; test: Activity at UDP-glucuronosyltransferase in Sprague-Dawley rat liver microsomes assessed as morphine conversion to M3G at 10 uM by Michaelis-Menten plot analysis
[17] = biological target: Mu-type opioid receptor (Homo sapiens) (UniProt P35372); conditions: HEK293, at 10 µM
Description: Displacement of [3H]diprenorphine from mu opioid receptor in HEK293 cells at 10 uM after 120 mins relative to control

Rattus norvegicus [18] = species: Rattus norvegicus; test: Activity at UDP-glucuronosyltransferase in Sprague-Dawley rat liver microsomes assessed as morphine conversion to M3G at 1 uM by Michaelis-Menten plot analysis
[19] = biological target: Kappa-type opioid receptor (Cricetulus griseus) (UniProt G3HZR5); test: Displacement of [3H]U-69593 from kappa opioid receptor in CHO cells at 1 uM after 120 mins relative to control; format: cell-based
Rattus norvegicus [20] = species: Rattus norvegicus; test: Inhibition of UDP-glucuronosyltransferase in Sprague-Dawley rat liver microsomes assessed as morphine conversion to M6G after 30 mins by HPLC analysis
Rattus norvegicus [21] = species: Rattus norvegicus; test: Inhibition of UDP-glucuronosyltransferase in Sprague-Dawley rat liver microsomes assessed as morphine conversion to M3G up to 50 uM after 30 mins by HPLC analysis relative to control
Hepatocyte [22] = test: Inhibition of UDP-glucuronosyltransferase in Sprague-Dawley rat hepatocytes assessed as morphine conversion to M3G at 5 to 10 uM incubated for 72 hrs prior to substrate addition measured after 2 hrs by HPLC analysis; format: cell-based
Rattus norvegicus [23] = species: Rattus norvegicus; test: Competitive inhibition of UDP-glucuronosyltransferase in Sprague-Dawley rat liver microsomes assessed as morphine conversion to M3G up to 5 uM by Lineweaver-Burk plot analysis
[24] = Inhibition of UDP-glucuronosyltransferase in Sprague-Dawley rat hepatocytes assessed as morphine conversion to M3G incubated for 72 hrs prior to substrate addition measured after 2 hrs by HPLC analysis; format: cell-based; conditions: Hepatocyte

Mu-type opioid receptor (Homo sapiens), sequence (P35372 whole entry): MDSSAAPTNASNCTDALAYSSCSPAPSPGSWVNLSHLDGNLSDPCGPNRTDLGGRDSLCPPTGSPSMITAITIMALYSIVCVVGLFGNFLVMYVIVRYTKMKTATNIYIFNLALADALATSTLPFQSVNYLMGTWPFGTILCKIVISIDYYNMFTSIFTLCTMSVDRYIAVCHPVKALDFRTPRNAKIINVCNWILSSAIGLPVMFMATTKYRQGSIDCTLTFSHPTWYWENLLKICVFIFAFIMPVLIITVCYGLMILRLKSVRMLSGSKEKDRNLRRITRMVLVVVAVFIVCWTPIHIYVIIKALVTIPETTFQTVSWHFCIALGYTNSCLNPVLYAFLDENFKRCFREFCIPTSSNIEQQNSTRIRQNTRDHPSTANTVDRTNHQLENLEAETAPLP
Kappa-type opioid receptor (Cricetulus griseus), sequence (G3HZR5 as listed by the source): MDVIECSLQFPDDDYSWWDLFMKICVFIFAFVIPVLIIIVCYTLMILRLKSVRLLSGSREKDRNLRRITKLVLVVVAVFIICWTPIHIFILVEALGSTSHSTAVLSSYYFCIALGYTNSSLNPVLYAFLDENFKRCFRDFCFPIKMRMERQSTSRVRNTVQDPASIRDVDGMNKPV
Delta-type opioid receptor (Cricetulus griseus), sequence (G3H1Y1 as listed by the source): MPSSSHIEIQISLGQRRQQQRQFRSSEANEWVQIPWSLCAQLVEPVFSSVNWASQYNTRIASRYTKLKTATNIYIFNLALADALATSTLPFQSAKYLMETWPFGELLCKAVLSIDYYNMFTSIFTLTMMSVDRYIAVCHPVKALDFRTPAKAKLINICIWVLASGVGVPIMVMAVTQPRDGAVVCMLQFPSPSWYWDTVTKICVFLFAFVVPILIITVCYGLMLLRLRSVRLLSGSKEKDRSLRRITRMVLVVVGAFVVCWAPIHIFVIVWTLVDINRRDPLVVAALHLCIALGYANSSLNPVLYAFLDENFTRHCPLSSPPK

SMILES: COc1ccc2c3c1O[C@H]1[C@@H](OC(=O)C(C)(C)C)C=C[C@H]4[C@@H](C2)N(C)CC[C@@]341
- inhibition [1]: 57%
- Km (Rattus norvegicus [2]): 0.62 µM
- Vmax (Rattus norvegicus [2]): 3.95 nmol/min/mg
- microsomal CLint at 10 µM [3]: 6.88 µL/min/mg
- inhibition (Hepatocyte [4]): Active
- inhibition [5]: 42%
- microsomal CLint at 50 µM [6]: 6.54 µL/min/mg
- inhibition [7]: 20%
- microsomal CLint at 5 µM [8]: 12.7 µL/min/mg
- inhibition [9]: 90%
- microsomal CLint at 2.5 µM [10]: 29.1 µL/min/mg
- microsomal CLint at 1 µM [11]: 52.7 µL/min/mg
- Km (Rattus norvegicus [12]): 0.22 µM
- Vmax (Rattus norvegicus [12]): 6.28 nmol/min/mg
- pIC50 [13]: 5.64
- pKi [13]: 5.59
- inhibition (Rattus norvegicus [14]): Dose-dependent effect
- Km (Rattus norvegicus [15]): 0.36 µM
- Vmax (Rattus norvegicus [15]): 4.53 nmol/min/mg
- Km (Rattus norvegicus [16]): 0.72 µM
- Vmax (Rattus norvegicus [16]): 4.63 nmol/min/mg
- inhibition [17]: 38%
- Km (Rattus norvegicus [18]): 0.13 µM
- Vmax (Rattus norvegicus [18]): 7.03 nmol/min/mg
- inhibition [19]: 6%
- inhibition (Rattus norvegicus [20]): inactive

SMILES: CCCCCCCCCCCC(=O)O[C@H]1C=C[C@H]2[C@H]3Cc4ccc(OC)c5c4[C@@]2(CCN3C)[C@H]1O5
- inhibition (Rattus norvegicus [21]): Active
- inhibition [1]: -7%
- inhibition [5]: 40%
- inhibition [7]: 0%
- inhibition [9]: 13%
- inhibition [17]: 12%
- inhibition [19]: 8%
- inhibition (Rattus norvegicus [20]): inactive

SMILES: COc1ccc2c3c1O[C@H]1[C@@H](O)CC[C@H]4[C@@H](C2)N(C)CC[C@@]341
- inhibition (Rattus norvegicus [21]): 40%
- inhibition [1]: 7%
- inhibition (Hepatocyte [22]): inactive
- inhibition [5]: 51%
- inhibition [7]: 17%
- inhibition [9]: 24%
- inhibition [17]: 40%
- inhibition [19]: 4%
- inhibition (Rattus norvegicus [20]): inactive

SMILES: COc1ccc2c3c1O[C@H]1[C@@H](O)C=C[C@H]4[C@@H](C2)N(C)CC[C@@]341 [CODEINE]
- Km (Rattus norvegicus [2]): 0.48 µM
- Vmax (Rattus norvegicus [2]): 4.06 nmol/min/mg
- microsomal CLint at 10 µM [3]: 11.9 µL/min/mg
- inhibition (Rattus norvegicus [23]): inactive
- microsomal CLint at 50 µM [6]: 8.35 µL/min/mg
- microsomal CLint at 5 µM [8]: 18.6 µL/min/mg
- microsomal CLint at 2.5 µM [10]: 31.1 µL/min/mg
- microsomal CLint at 1 µM [11]: 48 µL/min/mg
- Km (Rattus norvegicus [12]): 0.41 µM
- Vmax (Rattus norvegicus [12]): 12.4 nmol/min/mg
- pIC50 [13]: 5.36
- pKi [13]: 5.16
- inhibition (Rattus norvegicus [14]): Dose-dependent effect
- Km (Rattus norvegicus [15]): 0.43 µM
- Vmax (Rattus norvegicus [15]): 8.04 nmol/min/mg
- Km (Rattus norvegicus [16]): 0.37 µM
- Vmax (Rattus norvegicus [16]): 4.41 nmol/min/mg
- pIC50 [24]: 4.68
- Km (Rattus norvegicus [18]): 0.26 µM
- Vmax (Rattus norvegicus [18]): 12.5 nmol/min/mg
- inhibition (Rattus norvegicus [20]): inactive

SMILES: COc1ccc2c3c1O[C@H]1[C@@H](OC(C)=O)C=C[C@H]4[C@@H](C2)N(C)CC[C@@]341
- inhibition [1]: 18%
- Km (Rattus norvegicus [2]): 0.69 µM
- Vmax (Rattus norvegicus [2]): 4.01 nmol/min/mg
- microsomal CLint at 10 µM [3]: 9.38 µL/min/mg
- inhibition (Hepatocyte [4]): Active
- inhibition (Rattus norvegicus [23]): inactive
- inhibition [5]: 66%
- microsomal CLint at 50 µM [6]: 5.97 µL/min/mg
- inhibition [7]: 19%
- microsomal CLint at 5 µM [8]: 25 µL/min/mg
- inhibition [9]: 60%
- microsomal CLint at 2.5 µM [10]: 24.7 µL/min/mg
- microsomal CLint at 1 µM [11]: 37.8 µL/min/mg
- Km (Rattus norvegicus [12]): 0.41 µM
- Vmax (Rattus norvegicus [12]): 10.1 nmol/min/mg
- pIC50 [13]: 5.49
- pKi [13]: 5.29
- inhibition (Rattus norvegicus [14]): Dose-dependent effect
- Km (Rattus norvegicus [15]): 0.56 µM
- Vmax (Rattus norvegicus [15]): 7.92 nmol/min/mg
- Km (Rattus norvegicus [16]): 0.35 µM
- Vmax (Rattus norvegicus [16]): 3.31 nmol/min/mg
- inhibition [17]: 43%
- Km (Rattus norvegicus [18]): 0.26 µM
- Vmax (Rattus norvegicus [18]): 9.74 nmol/min/mg
- inhibition [19]: 25%
- inhibition (Rattus norvegicus [20]): inactive

SMILES: COc1ccc2c3c1O[C@H]1[C@@H](OC(C)=O)CC[C@H]4[C@@H](C2)N(C)CC[C@@]341
- inhibition (Rattus norvegicus [21]): Active
- inhibition [1]: -10%
- inhibition (Hepatocyte [22]): inactive
- inhibition [5]: 13%
- inhibition [7]: -2%
- inhibition [17]: 5%
- inhibition [19]: 3%
- inhibition (Rattus norvegicus [20]): inactive

SMILES: CN1CC[C@]23c4c5ccc(O)c4O[C@H]2[C@@H](O)C=C[C@H]3[C@H]1C5
- inhibition [1]: 72%
- inhibition [5]: 100%
- inhibition [9]: 95%
- inhibition [19]: 95%
